Source: US20060019885A1, “Modified bryodin 1 with reduced immunogenicity” (priority 2002, published 2006)

System: peripheral blood mononuclear cells (PBMCs), containing antigen presenting cells (APCs) and T-cells
Test: naïve human T-cell proliferation assay (3H-thymidine incorporation, stimulation index)
Assay type: cell-based
Conditions: for predicted ranking of the most immunodominant regions: from numbers of responding naïve donors and crystallographic B-factor analysis; for number of donor samples reactive / percent of donor samples reactive: of 21 naïve donor PBMC samples, positive response SI>2
Source text: This approach has proven to be a particularly effective method and is disclosed herein as an embodiment of the invention. The method can be applied to test part of the sequence, for example a sub-set of bryodin 1 peptides such as all or some of those listed in FIG. 1; or the method may be applied to test entire sequence. In the present studies, the method has involved the testing of overlapping bryodin 1 derived peptide sequences in a scheme so as to scan and test the entire bryodin 1 sequence (including peptides representing the N-terminal pro-pepeptide). The synthetic peptides are tested for their ability to evoke a proliferative response in human T-cell cultured in vitro. Where this type of approach is conducted using naïve human T-cells taken from healthy donors, the inventors have established that in the operation of such an assay, a stimulation index equal to or greater than 2.0 is a useful measure of induced proliferation. The stimulation index is conventionally derived by division of the proliferation score (e.g. counts per minute of radioactivity if using ^3H-thymidine incorporation) measured to the test peptide by the score measured in cells not contacted with a test peptide.
The interaction between MHC, peptide and T-cell receptor (TCR) provides the structural basis for the antigen specificity of T-cell recognition. T-cell proliferation assays test the binding of peptides to MHC and the recognition of MHC/peptide complexes by the TCR. In vitro T-cell proliferation assays of the present example, involve the stimulation of peripheral blood mononuclear cells (PBMCs), containing antigen presenting cells (APCs) and T-cells. Stimulation is conducted in vitro using synthetic peptide antigens, and in some experiments whole protein antigen. Stimulated T-cell proliferation is measured using ^3H-thymidine (^3H-Thy) and the presence of incorporated ^3H-Thy assessed using scintillation counting of washed fixed cells.
Buffy coats from human blood stored for less than 12 hours were obtained from the National Blood Service (Addenbrooks Hospital, Cambridge, UK). Ficoll-paque was obtained from Amersham Pharmacia Biotech (Amersham, UK). Serum free AIM V media for the culture of primary human lymphocytes and containing L-glutamine, 50 μg/ml streptomycin, 10 μg/ml gentomycin and 0.1% human serum albumin was from Gibco-BRL (Paisley, UK). Synthetic peptides were obtained from Eurosequence (Groningen, The Netherlands) and Babraham Technix (Cambridge, UK).
Erythrocytes and leukocytes were separated from plasma and platelets by gentle centrifugation of buffy coats. The top phase (containing plasma and platelets) was removed and discarded. Erythrocytes and leukocytes were diluted 1:1 in phosphate buffered saline (PBS) before layering onto 15 ml ficoll-paque (Amersham Pharmacia, Amersham UK). Centrifugation was done according to the manufacturers recommended conditions and PBMCs were harvested from the serum+PBS/ficoll paque interface. PBMCs were mixed with PBS (1:1) and collected by centrifugation. The supernatant was removed and discarded and the PBMC pellet resuspended in 50 ml PBS. Cells were again pelleted by centrifugation and the PBS supernatant discarded. Cells were resuspended using 50 ml AIM V media and at this point counted and viability assessed using trypan blue dye exclusion. Cells were again collected by centrifugation and the supernatant discarded. Cells were resuspended for cryogenic storage at a density of 3×10^7 per ml. The storage medium was 90% (v/v) heat inactivated AB human serum (Sigma, Poole, UK) and 10% (v/v) DMSO (Sigma, Poole, UK). Cells were transferred to a regulated freezing container (Sigma) and placed at −70° C. overnight. When required for use, cells were thawed rapidly in a water bath at 37° C. before transferring to 10 ml pre-warmed AIM V medium.
PBMC were stimulated with protein and peptide antigens in a 96 well flat bottom plate at a density of 2×10^5 PBMC per well. […]

ATEAAKFVFKDAKKK [R2]
predicted ranking of the most immunodominant regions: relatively less immunogenic | number of donor samples reactive: 3 donor samples | percent of donor samples reactive: 14%

ATISLENNWSALSKQIQIAST [R5]
predicted ranking of the most immunodominant regions: most immunogenic | number of donor samples reactive: 4 donor samples | percent of donor samples reactive: 19%

ERLQTAAGKIRENIPLGLPALDSA [R3]
number of donor samples reactive: 3 donor samples | percent of donor samples reactive: 14%

RYTLLHLTNYADETISVAVDV [R1]
predicted ranking of the most immunodominant regions: most immunogenic | number of donor samples reactive: 6 donor samples | percent of donor samples reactive: over 28%

ITTLYYYTASSAASALLVLIQSTAESA [R4]
number of donor samples reactive: 5 donor samples | percent of donor samples reactive: 24%
